Results from patent publication US20260226037A1, “MICROTUBULE TARGETING AGENTS” (ARIEL SCIENTIFIC INNOVATIONS LTD., priority 2022, published 2026).
“Also recorded” adds a separate entry of the source.

What was measured:
RPMI-DOX40 cells = test: XTT cytotoxicity, RPMI-DOX40; type: cell-based
Procedure, shortened: (§1)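 Cells are exposed to compound and viability is scored by XTT.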

RPMI-LR5 cells = test: XTT cytotoxicity, RPMI-LR5; type: cell-based
Procedure, shortened: as §1

RPMI-MR20 cells = test: XTT cytotoxicity, RPMI-MR20; type: cell-based
Procedure, shortened: as §1

MM1.S cells = test: XTT cytotoxicity, MM1.S; type: cell-based; details: Homo sapiens, multiple myeloma, non-resistant, read-out: IC50
Procedure, shortened: as §1

MM1.R cells = test: XTT cytotoxicity, MM1.R; type: cell-based; details: MM.1R; MM1.R, multiple myeloma, dexamethasone resistant; read-out: IC50
Procedure, shortened: as §1

N6/ADR cells = test: XTT cytotoxicity, N6/ADR; type: cell-based
MCF7 cells = test: XTT cytotoxicity, MCF7; type: cell-based; details: Homo sapiens; MCF7, breast adenocarcinoma, non-resistant
Procedure, shortened: as §1

NCI-H69 cells = test: XTT cytotoxicity, NCI-H69; type: cell-based; details: Homo sapiens; NCI-H69, small cell lung carcinoma, non-resistant
Method: (§2) The cytotoxic activity of the novel family was evaluated against various tumor cells, including myeloma cells, acute lymphoblastic leukemia cells, acute monocytic leukemia cells, chronic myelogenous leukemia cells, pancreatic cancer cells, breast cancer cells, uterine sarcoma cells, cervix adenocarcinoma cells, ovary cancer cells, melanoma cells, osteosarcoma cells, prostate cancer cells, lung cancer cells, neuroblastoma cells and colorectal adenocarcinoma cells by XTT assay.

NCI-H69 VCR/R cells = test: XTT cytotoxicity, NCI-H69 VCR/R; type: cell-based
Method: as §2

[1] = tested on: acute lymphoblastic leukemia cells; test: XTT cytotoxicity, acute lymphoblastic leukemia cells; type: cell-based; details: lowest of the range
Method: as §2

[2] = tested on: metastatic breast adenocarcinoma cells; test: XTT cytotoxicity, metastatic breast adenocarcinoma cells; type: cell-based; details: highest of the range
Method: as §2

myeloma cell lines = test: XTT cytotoxicity, 10 different myeloma cell lines; type: cell-based; details: range over 10 different myeloma cell lines
Method: as §2
When this family of compounds were tested on different cell lines from the same type of tumor with different phenotypes there were no significant differences in cytotoxic sensitivity.

[3] = tested on: different cancer cell lines; test: XTT cytotoxicity, various tumor cells; type: cell-based; details: XTT assay
Method: as §2

[4] = tested on: colchicine binding site on tubulin protein; test: EBI competition assay, RPMI-8226 cells; type: cell-based; details: RPMI-8226 living cells
[5] = tested on: MESA/SA and MES-SA/DX5, NALM6 and NALM6/ADR, RPMI8226 and RPMI-DO40 cells; test: Annexin / propidium iodide staining (apoptosis, necrosis); type: cell-based; details: 72 hours, graded concentrations
HUVEC cells = test: Disruption of pre-formed HUVEC capillary-like tubes; type: cell-based, human; details: tubes formed 4 hours, then 2 hours exposure
Method: The analysis of the anti-vascular effect was performed by seeding HUVEC cells on Matrigel matrix, and incubated them until formation of capillary-like tubes, reminiscent of newly formed vessels after 4 hours.

**Q.** How did the IC50 (RPMI-DOX40 cells; RPMI-DOX40, multiple myeloma, P-gp overexpression, read-out: IC50) turn out when CCCCCOC(=O)c1[nH]c2c(c1C)C(=O)CC(c1ncco1)C2 (stereo not drawn) [SMS077, pentyl 3-methyl-6-(oxazol-2-yl)-4-oxo-4,5,6,7-tetrahydro-1H-indole-2-carboxylate] was run?
**A.** 25 nM

**Q.** And the “IC50 ratio between resistant and non-resistant cells” value (RPMI-DOX40 cells; RPMI-DOX40 / RPMI 8226)?
**A.** 0.962

**Q.** And the “sensitivity of resistant subline vs parental cells” value (RPMI-DOX40 cells; RPMI-Dox40 vs RPMI8226 (RPMI-S))?
**A.** no difference in their sensitivity

**Q.** And the IC50 (RPMI-LR5 cells; RPMI-LR5, multiple myeloma, melphalan resistant, read-out: IC50)?
**A.** 19 nM

**Q.** And the “IC50 ratio between resistant and non-resistant cells” value (RPMI-LR5 cells; RPMI-LR5 / RPMI 8226)?
**A.** 0.731

**Q.** What about the “sensitivity of resistant subline vs parental cells” value (RPMI-LR5 cells; RPMI-LR5 vs RPMI8226 (RPMI-S)) of the same compound?
**A.** no difference in their sensitivity

**Q.** What about the IC50 (RPMI-MR20 cells; RPMI-MR20, mitoxantrone resistant, read-out: IC50) of the same compound?
**A.** 23 nM

**Q.** And the “IC50 ratio between resistant and non-resistant cells” value (RPMI-MR20 cells; RPMI-MR20 / RPMI 8226)?
**A.** 0.885

**Q.** What about the IC50 (MM1.S cells) of the same compound?
**A.** 33 nM

**Q.** And the IC50 (MM1.R cells)?
**A.** 36 nM

**Q.** And the “IC50 ratio between resistant and non-resistant cells” value (N6/ADR cells; N6/ADR / NALM6)?
**A.** 0.895

**Q.** And the IC50 (N6/ADR cells; N6/ADR, acute lymphoblastic leukemia, P-gp overexpression, read-out: IC50)?
**A.** 17 nM

**Q.** What about the IC50 (MCF7 cells) of the same compound?
**A.** 380 nM

**Q.** What about the IC50 (NCI-H69 cells) of the same compound?
**A.** 163 nM

**Q.** What about the IC50 (NCI-H69 VCR/R cells; Homo sapiens, NCI-H69 VCR/R, vincristine resistant) of the same compound?
**A.** 48 nM

**Q.** What about the “IC50 ratio between resistant and non-resistant cells” value (NCI-H69 VCR/R cells; NCI-H69 VCR/R / NCI-H69) of the same compound?
**A.** 0.294

**Q.** What about the “resistance of cells to treatment” value (NCI-H69 VCR/R cells; NCI-H69 VCR/R lung carcinoma cells) of the same compound?
**A.** resistant to vincristine but not to SMS077 treatment

**Q.** What about the IC50 [1] of the same compound?
**A.** 10 nM

**Q.** What about the IC50 [2] of the same compound?
**A.** 426 nM

**Q.** What about the IC50 (myeloma cell lines) of the same compound?
**A.** 14 to 52 nM

**Q.** And the cytotoxic activity [3]?
**A.** very potent cytotoxic activity against different cancer cell lines at low nanomolar levels

**Q.** And the “prevention of covalent binding of EBI to the colchicine binding site” value [4]?
**A.** prevented the covalent binding of EBI to the colchicine binding site

**Q.** What about the “apoptosis and necrosis (annexin, propidium iodide staining)” value [5] of the same compound?
**A.** induced apoptosis and necrosis; also recorded: induces apoptosis and necrosis of treated cells

**Q.** And the “disruption of pre-formed capillary-like tube network” value (HUVEC cells)?
**A.** disrupted the integrity of the network in a dose dependent manner
